Assay: Electrotransport drug flux in automated permeation cells (zero-current passive phase, then electrotransport phase)
Assay type: in vitro ADME
Conditions: aqueous donor solution about 15 mg/mL drug HCl salt, receptor Dulbecco's phosphate buffered saline pH 7.4
Procedure: Automated permeation cells used for passive permeation studies were also used for the assessment of electrotransport drug flux. The donor compartment contained the silver anode while the receptor compartment contained the silver chloride cathode. The electrodes were connected to a Maccor power source. An aqueous donor solution containing about 15 mg/mL of the drug HCl salt was utilized. The receptor solution was Dulbecco's phosphate buffered saline ([…]) pH 7.4. The first 16 hours served as a zero current passive phase after which the power source was turned on. The electrotransport phase during which a current of 0.2 mA was supplied (to result in a current density of 0.1 mA/cm^2) lasted 24 hours. Receptor solution was automatically collected every 4 hours during the passive phase and every hour during the electrotransport phase, and analyzed for drug by HPLC. Flux, as μg/cm^2h, was calculated, as was the average steady-state flux, which included data points where delivery had reached a nearly constant value.

## CSc1cccc(N(C)C(=N)Nc2cc(SC)ccc2Cl)c1 [CNS 5161, N-(2-chloro-5-(methylthio)phenyl)-N′-(3-(methylthio)phenyl)-N′-methyl guanidine]
Current 0.2 mA, current density 0.1 mA/cm^2, 24 hours
  Average steady-state flux during electrotransport: 53±2.5 μg/cm^2h
Initial 16 hours, zero current
  Flux during zero-current passive phase: about 0.02 μg/cm^2h

Reference: patent US20030198662A1, “Transdermal administration of N-(2,5-disubstituted phenyl)-N'-(3-substituted phenyl)-N'-methyl guanidines” (priority 1999, published 2003)
